In patent US10030006B2, “Coumarin based Hsp90 inhibitors with urea and ether substituents” (University of Kansas, priority 2013, dated 2018):
Like-named read-outs stand apart in the source and are kept apart here.

How the values were obtained:
[1] = system: SKBr3 (estrogen receptor negative, Her2 over-expressing breast cancer cells); conditions: background, Marcu, et al., 2000; read-out: Hsp90 C-terminal inhibitor efficiency in SKBr3 cells; cited from earlier work
[2] = system: SKBr3 (estrogen receptor negative, Her2 over-expressing breast cancer cells); test: Anti-proliferation assay (MTS/PMS, 72 h), SKBr3; type: cell-based; conditions: Homo sapiens, SK-BR-3
[3] = system: MCF-7 (estrogen receptor positive breast cancer cells); test: Anti-proliferation assay (MTS/PMS, 72 h), MCF-7; type: cell-based; conditions: Homo sapiens, MCF7
HCT-116 = test: Anti-proliferation assay, HCT-116; type: cell-based; conditions: Homo sapiens, HCT-116
Procedure, shortened: (§1)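 Cells seeded at 2000/well, attached overnight, then exposed to varying compound concentrations (1% DMSO final) for 72 h at 37 °C, 5% CO2. Viable cells read by MTS/PMS; 1% DMSO wells set as 100% proliferation. IC50 from separate triplicate experiments.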

PC-3 = test: Anti-proliferation assay, PC-3; type: cell-based; conditions: Homo sapiens, PC-3, Prostate Cancer
Procedure, shortened: as §1

A-549 = test: Anti-proliferation assay, A-549; type: cell-based; conditions: Homo sapiens, A549
Procedure, shortened: as §1

MDA1986 = test: Anti-proliferation assay, MDA1986; type: cell-based; conditions: MDA1986, HSNCC
Procedure, shortened: as §1

JMAR = test: Anti-proliferation assay, JMAR; type: cell-based; conditions: JMAR, HSNCC
Procedure, shortened: as §1

MDAMB231 = test: Anti-proliferation assay, MDAMB231; type: cell-based; conditions: Homo sapiens, MDA-MB-231, Tri-Neg
Procedure, shortened: as §1

DRO81-1 = test: Anti-proliferation assay, DRO81-1; type: cell-based; conditions: Thyroid
Procedure, shortened: as §1

BCPAP = test: Anti-proliferation assay, BCPAP; type: cell-based; conditions: Homo sapiens, BCPAP, Thyroid
Procedure: Cells were maintained in a 1:1 mixture of Advanced DMEM/F12 (Gibco) supplemented with non-essential amino acids, L-glutamine (2 mM), streptomycin (500 μg/mL), penicillin (100 units/mL), and 10% FBS. Cells were grown to confluence in a humidified atmosphere (37° C., 5% CO2), seeded (2000/well, 100 μL) in 96-well plates, and allowed to attach overnight. Compound at varying concentrations in DMSO (1% DMSO final concentration) was added, and cells were returned to the incubator for 72 h. At 72 h, the number of viable cells was determined using an MTS/PMS cell proliferation kit (Promega) per the manufacturer's instructions. Cells incubated in 1% DMSO were used at 100% proliferation, and values were adjusted accordingly. IC50 values were calculated from separate experiments performed in triplicate using GraphPad Prism.

MRC5 = test: Anti-proliferation assay, MRC5 (normal); type: cell-based; conditions: Homo sapiens
Procedure, shortened: as §1

HMLE = test: Anti-proliferation assay, HMLE (normal); type: cell-based; conditions: HMLE
Procedure, shortened: as §1

[4] = system: SKBr3 and MCF-7 cell lines; test: Anti-proliferative activity against both breast cancer cell lines (results in words); type: cell-based; conditions: text b189, two breast cancer cell lines
Procedure, shortened: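 Cells seeded at 2000/well, attached overnight, then exposed to compound (1% DMSO final) for 72 h at 37° C, 5% CO2. Viable cells counted by MTS/PMS, normalised to 1% DMSO controls as 100% proliferation; IC50 from triplicate experiments.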

[5] = Table 7, prenylated phenyl ureas
[6] = Table 6, substituted phenyl ureas, Breast Cancer, read-out: IC50 SKBr3
[7] = Table 6, substituted phenyl ureas, Breast Cancer, read-out: IC50 MCF-3
[8] = Table 6, substituted phenyl ureas
[9] = MRC5, Table 6, substituted phenyl ureas

Row | IC50 [2, 6] | IC50 [3, 7] | IC50 (HCT-116; [8]) | IC50 (PC-3; [8]) | IC50 (A-549; [8]) | IC50 (MDAMB231; [8]) | SMILES | IC50 (MDA1986; [8]) | IC50 (JMAR; [8]) | IC50 (DRO81-1; [8]) | IC50 (BCPAP; [8]) | IC50 (MRC5; [9]) | IC50 (HMLE; [8]) | further results
1 | – | – | – | – | – | – | CO[C@@H]1[C@@H](OC(N)=O)[C@@H](O)[C@H](Oc2ccc3c(O)c(NC(=O)c4ccc(O)c(CC=C(C)C)c4)c(=O)oc3c2C)OC1(C)C [Novobiocin] | – | – | – | – | – | – | IC50 [1]: ~700000 nM
2 | – | – | – | – | – | – | CC(C)=CCc1cc(NC(=O)Nc2cc3ccc(OC4CCN(C)CC4)c(C)c3oc2=O)ccc1O [OH, 1-(4-hydroxy-3-(3-methylbut-2-en-1-yl)phenyl)-3-(8-methyl-7-((1-methylpiperidin-4-yl)oxy)-2-oxo-2H-chromen-3-yl)urea] | – | – | – | – | – | – | IC50 ([2]; Table 7, prenylated phenyl ureas, Breast Cancer, read-out: IC50 SKBr3): 390 nM; IC50 ([2]; amide versus urea linkage, read-out: IC50 for SKBr3): 390 nM; IC50 ([3]; Table 7, prenylated phenyl ureas, Breast Cancer, read-out: IC50 MCF-3): 370 nM; IC50 ([3]; amide versus urea linkage, read-out: IC50 for MCF-3): 370 nM; IC50 (HCT-116; [5]): 390 nM; IC50 (PC-3; [5]): 290 nM; IC50 (A-549; [5]): 250 nM; IC50 (MDA1986; [5]): 1360 nM; IC50 (JMAR; [5]): 910 nM; IC50 (MDAMB231; [5]): 660 nM; IC50 (DRO81-1; [5]): 1100 nM; IC50 (BCPAP; [5]): 990 nM; IC50 (MRC5; MRC5, Table 7, prenylated phenyl ureas): 4020 nM; IC50 (HMLE; [5]): 4800 nM; increase in inhibition, urea versus amide linkage [4]: 2-3 fold
3 | 1480 nM | 1720 nM | 2610 nM | 1150 nM | 1510 nM | 850 nM | CC(=O)Oc1ccc(NC(=O)Nc2cc3ccc(OC4CCN(C)CC4)c(C)c3oc2=O)cc1 [p-OAc, 4-(3-(8-methyl-7-((1-methylpiperidin-4-yl)oxy)-2-oxo-2H-chromen-3-yl)ureido)phenyl acetate] | 1980 nM | 3500 nM | 3700 nM | 5530 nM | 15500 nM | 15900 nM | –
4 | 410 nM | 400 nM | 270 nM | 160 nM | 310 nM | 690 nM | Cc1c(OC2CCN(C)CC2)ccc2cc(NC(=O)Nc3ccc(OC(F)(F)F)cc3)c(=O)oc12 [p-OCF3, 1-(8-methyl-7-((1-methylpiperidin-4-yl)oxy)-2-oxo-2H-chromen-3-yl)-3-(4-(trifluoromethoxy)phenyl)urea] | 870 nM | 3600 nM | 230 nM | 870 nM | 3300 nM | 4100 nM | –
